Measured values published in patent US9732031B2 (priority 2013, dated 2017).
One block for each compound: values may come before it.

Key:
dopamine transporter = target: T1, dopamine transporter (Rattus norvegicus, UniProt P23977); test: Inhibition of dopamine uptake in rat striatum synaptosomes; format: biochemical
T1 construct: tissue Cerep, France (assay provider); host or cells: rat striatum synaptosomes
Method: The inhibitory activity of the (S)- and (R)-enantiomers of 1-(m-chlorophenyl)-2-(tert-butylamino)-(2-^2H)-propan-1-one was evaluated in the rat synaptosome assay (Cerep, France). Briefly, each compound was incubated for 15 min at 37° C. with rat striatum synaptosomes in the presence of tritiated dopamine (DA). The uptake of radiolabeled DA by the synaptosomes was measured by scintillation counting as a function of compound concentration. Inhibition of the dopamine transporter is observed when the amount of radioactivity in the synaptosomes is lower in the presence of the test article than in its absence. Analysis of the data was performed using the log(inhibitor) vs. response—variable slope (four parameters) model in GraphPad Prism 6.0 (GraphPad Software, Inc., La Jolla, Calif.), where response is % inhibition (% inhibition=100 [(DA uptake)control−(DA uptake)compound)]/(DA uptake)vehicle). Both inhibition curves were characterized by Hill slopes close to 1.

[1] = target: T2, human α7 nicotinic acetylcholine receptor (Homo sapiens, UniProt P36544); test: Inhibition of acetylcholine induced current in Xenopus Laevis oocytes overexpressing α7 nAChR; format: cell-based
T2 construct: expressed in transfected cells; host or cells: Xenopus laevis oocytes injected with cDNA
T2 sequence (P36544 23-502): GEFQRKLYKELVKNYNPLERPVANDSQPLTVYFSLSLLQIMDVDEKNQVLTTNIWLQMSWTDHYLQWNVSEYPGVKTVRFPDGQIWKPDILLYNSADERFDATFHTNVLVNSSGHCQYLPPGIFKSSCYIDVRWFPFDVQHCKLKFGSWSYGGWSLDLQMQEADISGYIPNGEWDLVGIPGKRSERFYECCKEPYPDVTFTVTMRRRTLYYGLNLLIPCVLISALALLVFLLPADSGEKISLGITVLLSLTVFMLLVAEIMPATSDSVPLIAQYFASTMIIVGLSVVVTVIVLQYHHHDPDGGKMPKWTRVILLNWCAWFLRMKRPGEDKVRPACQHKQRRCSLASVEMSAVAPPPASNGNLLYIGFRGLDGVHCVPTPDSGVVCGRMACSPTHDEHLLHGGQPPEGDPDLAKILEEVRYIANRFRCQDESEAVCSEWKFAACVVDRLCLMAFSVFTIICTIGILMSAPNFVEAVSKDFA
Method: Evaluation of the antagonist activity of the enantiomers of deuterated bupropion at α7 and α4β2 nicotinic acetylcholine receptors (nAChRs) was carried out in Xenopus Laevis oocytes prepared and injected with the corresponding cDNA using standard procedures. Receptor expression was examined two days after injection. For α4β2 nAChR, the two cDNAs were injected in equimolar amounts. All experiments were performed at 18° C. and cells were superfused with OR2 medium containing 82.5 mM sodium chloride, 2.5 mM potassium chloride, 5 mM HEPES, 1.8 mM calcium chloride, and 1 mM magnesium chloride at pH 7.4. A two-electrode voltage-clamp configuration was used to record currents evoked by acetylcholine addition. Data acquisition and analysis was performed in Matlab (Mathworks, Inc., Natick, Mass.). Statistical analysis was executed in Excel (Microsoft Corp, Redmond, Wash.) or Matlab (Mathwork, Inc., Natick, Mass.). All experiments were carried out using at least 3 oocytes.

[2] = target: T3, norepinephrine transporter (Rattus norvegicus, UniProt Q63380); test: Inhibition of norepinephrine uptake in rat hypothalamus synaptosomes; format: biochemical
T3 construct: tissue Cerep, France (assay provider); host or cells: rat hypothalamus synaptosomes
T3 sequence (Q63380 1-617): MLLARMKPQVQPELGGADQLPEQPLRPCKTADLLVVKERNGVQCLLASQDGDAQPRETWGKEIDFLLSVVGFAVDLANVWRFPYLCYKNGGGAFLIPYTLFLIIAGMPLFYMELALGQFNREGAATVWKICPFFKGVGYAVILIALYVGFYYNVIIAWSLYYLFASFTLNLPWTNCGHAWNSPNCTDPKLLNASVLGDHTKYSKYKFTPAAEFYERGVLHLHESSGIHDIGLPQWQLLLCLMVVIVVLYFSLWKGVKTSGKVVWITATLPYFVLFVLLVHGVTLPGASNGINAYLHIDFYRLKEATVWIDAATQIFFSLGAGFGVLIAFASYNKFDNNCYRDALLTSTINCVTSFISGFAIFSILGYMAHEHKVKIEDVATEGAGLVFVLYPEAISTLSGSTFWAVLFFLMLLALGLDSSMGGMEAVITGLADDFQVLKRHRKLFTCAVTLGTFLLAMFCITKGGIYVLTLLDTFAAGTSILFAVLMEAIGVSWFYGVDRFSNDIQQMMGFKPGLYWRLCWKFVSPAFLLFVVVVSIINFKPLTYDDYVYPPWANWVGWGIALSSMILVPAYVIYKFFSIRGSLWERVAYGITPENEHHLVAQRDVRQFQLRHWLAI
Method: The inhibitory activity of the (S)- and (R)-enantiomers of 1-(m-chlorophenyl)-2-(tert-butylamino)-(2-^2H)-propan-1-one was evaluated in the rat synaptosome assay (Cerep, France). Briefly, compounds were incubated for 20 min at 37° C. with rat hypothalamus synaptosomes in the presence of tritiated norepinephrine (NE). The uptake of radiolabeled NE by the synaptosomes was measured as a function of compound concentration. Inhibition of the transporter is observed when the amount of radioactivity in the synaptosomes is lower in the presence of test article. Analysis of the data was performed using the log(inhibitor) vs. response—variable slope (four parameters) model in GraphPad Prism 6.0 (GraphPad Software, Inc., La Jolla, Calif.), where response is % inhibition (% inhibition=100 [(NE uptake)control−(NE uptake)compound)]/(NE uptake)vehicle). Both inhibition curves were characterized by Hill slopes close to 1.

female CD-1 mice = test: Behavioral effects after intraperitoneal injection in female CD-1 mice; conditions: 2 h observation
Method: Individual body weights were used for dose volume calculations. Equal numbers of animals per group were tested each day. […] Animals were also observed 24 h post-dose. During the 2 h observation period, presence or absence of ataxic gait, paralysis, hyperactivity, hypoactivity, and catatonic episodes was recorded. Number, time of onset, duration, and intensity of convulsions were also recorded. Duration of each convulsion was graded as short (1 to 10 s), medium (11 to 30 s), or long (≧31 s). Intensity of convulsion was similarly graded as mild, moderate, or severe. Any animal showing a single episode of severe seizure longer than 1 min or experiencing greater than 40 consecutive episodes of severe convulsions over 1 h or less was euthanized.

in vivo = conditions: male, C57BL/6, mouse, po; for half-life: 75 mg/kg
Method: As appreciated, h-rac-bupropion is a 1:1 mixture of the two protonated enantiomers h-S-bupropion and h-R-bupropion. […] Animals were euthanized at preset time points (n=3 per time point). […] Quantitative data was analyzed in Excel (Microsoft Corp, Redmond, Wash.) using the PKSolver add-in (version 2, as described by Zhang et al. in Comput Methods Programs Biomed 99 (2010) 306-314) to determine PK parameters.

T1 sequence (P23977 whole entry): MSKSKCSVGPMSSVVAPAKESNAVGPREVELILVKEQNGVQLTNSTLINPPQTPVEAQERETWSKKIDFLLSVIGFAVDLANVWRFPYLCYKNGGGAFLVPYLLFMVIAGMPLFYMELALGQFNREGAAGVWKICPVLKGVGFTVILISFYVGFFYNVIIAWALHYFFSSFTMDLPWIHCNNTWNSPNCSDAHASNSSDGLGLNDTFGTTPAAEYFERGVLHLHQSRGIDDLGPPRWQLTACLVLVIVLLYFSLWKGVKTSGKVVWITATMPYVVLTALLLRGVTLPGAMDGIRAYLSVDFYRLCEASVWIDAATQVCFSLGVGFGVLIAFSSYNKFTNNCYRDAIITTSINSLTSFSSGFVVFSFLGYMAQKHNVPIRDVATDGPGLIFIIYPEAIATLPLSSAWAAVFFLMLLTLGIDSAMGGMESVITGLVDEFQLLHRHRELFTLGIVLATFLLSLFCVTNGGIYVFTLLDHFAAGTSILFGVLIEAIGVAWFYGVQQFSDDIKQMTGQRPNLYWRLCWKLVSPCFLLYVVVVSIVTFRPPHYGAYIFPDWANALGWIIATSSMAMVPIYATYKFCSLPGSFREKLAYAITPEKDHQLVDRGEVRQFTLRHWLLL

SMILES: [2H][C@](C)(NC(C)(C)C)C(=O)c1cccc(Cl)c1 [d-R-bupropion, (R)-1-(m-chlorophenyl)-2-(tert-butylamino)-(2-^2H)-propan-1-one]
IC50 (dopamine transporter): 4.2 µM | IC50 [1]: 28.7 µM | IC50 [2]: 5.76 µM | mice per dose group experiencing ataxia (female CD-1 mice; 100 mg/kg i.p.): 56% | mice per dose group experiencing catatonia (female CD-1 mice; 100 mg/kg i.p.): 78% | mice per dose group experiencing convulsions (female CD-1 mice; 100 mg/kg i.p.): 33% | mice per dose group experiencing hyperactivity (female CD-1 mice; 100 mg/kg i.p.): 0% | mice per dose group experiencing hypoactivity (female CD-1 mice; 100 mg/kg i.p.): 100% | mice per dose group experiencing ataxia (female CD-1 mice; 125 mg/kg i.p.): 80% | mice per dose group experiencing catatonia (female CD-1 mice; 125 mg/kg i.p.): 90% | mice per dose group experiencing convulsions (female CD-1 mice; 125 mg/kg i.p.): 60% | mice per dose group experiencing hyperactivity (female CD-1 mice; 125 mg/kg i.p.): 0% | mice per dose group experiencing hypoactivity (female CD-1 mice; 125 mg/kg i.p.): 100% | mice per dose group experiencing ataxia (female CD-1 mice; 150 mg/kg i.p.): 90% | mice per dose group experiencing catatonia (female CD-1 mice; 150 mg/kg i.p.): 100% | mice per dose group experiencing convulsions (female CD-1 mice; 150 mg/kg i.p.): 100% | mice per dose group experiencing hyperactivity (female CD-1 mice; 150 mg/kg i.p.): 0% | mice per dose group experiencing hypoactivity (female CD-1 mice; 150 mg/kg i.p.): 100% | AUC0-t of dRR (d-RR-hydroxybupropion) in plasma (in vivo): 22059 ng·h/mL | AUC0-t of hR (h-R-bupropion) in plasma (in vivo): 496 ng·h/mL | AUC0-t of hRR (h-RR-hydroxybupropion) in plasma (in vivo): 1685 ng·h/mL | AUC0-t of hS (h-S-bupropion) in plasma (in vivo): 340 ng·h/mL | AUC0-t of hSS (h-SS-hydroxybupropion) in plasma (in vivo): 169 ng·h/mL | half-life (in vivo): 1.7 h

SMILES: [2H][C@@](C)(NC(C)(C)C)C(=O)c1cccc(Cl)c1 [d-S-bupropion, (S)-1-(m-chlorophenyl)-2-(tert-butylamino)-(2-^2H)-propan-1-one]
IC50 (dopamine transporter): 0.42 µM | IC50 [1]: 43.2 µM | IC50 [2]: 2.3 µM | mice per dose group experiencing ataxia (female CD-1 mice; 100 mg/kg i.p.): 70% | mice per dose group experiencing catatonia (female CD-1 mice; 100 mg/kg i.p.): 10% | mice per dose group experiencing convulsions (female CD-1 mice; 100 mg/kg i.p.): 40% | mice per dose group experiencing hyperactivity (female CD-1 mice; 100 mg/kg i.p.): 100% | mice per dose group experiencing hypoactivity (female CD-1 mice; 100 mg/kg i.p.): 0% | mice per dose group experiencing ataxia (female CD-1 mice; 125 mg/kg i.p.): 89% | mice per dose group experiencing catatonia (female CD-1 mice; 125 mg/kg i.p.): 44% | mice per dose group experiencing convulsions (female CD-1 mice; 125 mg/kg i.p.): 70% | mice per dose group experiencing hyperactivity (female CD-1 mice; 125 mg/kg i.p.): 78% | mice per dose group experiencing hypoactivity (female CD-1 mice; 125 mg/kg i.p.): 0% | mice per dose group experiencing ataxia (female CD-1 mice; 150 mg/kg i.p.): 100% | mice per dose group experiencing catatonia (female CD-1 mice; 150 mg/kg i.p.): 80% | mice per dose group experiencing convulsions (female CD-1 mice; 150 mg/kg i.p.): 100% | mice per dose group experiencing hyperactivity (female CD-1 mice; 150 mg/kg i.p.): 20% | mice per dose group experiencing hypoactivity (female CD-1 mice; 150 mg/kg i.p.): 80% | AUC0-t of dSS (d-SS-hydroxybupropion) in plasma (in vivo): 6545 ng·h/mL | AUC0-t of hR (h-R-bupropion) in plasma (in vivo): 269 ng·h/mL | AUC0-t of hRR (h-RR-hydroxybupropion) in plasma (in vivo): 1129 ng·h/mL | AUC0-t of hS (h-S-bupropion) in plasma (in vivo): 469 ng·h/mL | AUC0-t of hSS (h-SS-hydroxybupropion) in plasma (in vivo): 395 ng·h/mL | AUC(0-t) (in vivo): 4760 ng·h/mL | half-life (in vivo): 0.9 h

AUC0-t of hR (h-R-bupropion) in plasma (in vivo): 6798 ng·h/mL | AUC0-t of hRR (h-RR-hydroxybupropion) in plasma (in vivo): 18393 ng·h/mL | AUC0-t of hS (h-S-bupropion) in plasma (in vivo): 5265 ng·h/mL | AUC0-t of hSS (h-SS-hydroxybupropion) in plasma (in vivo): 6591 ng·h/mL
SMILES: CC(NC(C)(C)C)C(=O)c1cccc(Cl)c1 (racemic) [h-rac-bupropion, racemic-1-(m-chlorophenyl)-2-(tert-butylamino)-propan-1-one, reference compound]
